Data taken from US12570666B2, “Furoindazole derivatives” (Bayer Aktiengesellschaft, priority 2019, dated 2026).

These compounds were tested against T1, human GPR84 receptor (Homo sapiens, UniProt Q9NQS5) (assay: cAMP HTRF assay for identification of cellular GPR84 antagonists). Conditions: CHO-K1 cells stably expressing human GPR84; Forskolin + agonist 6-OAU (EC80); average or median values.
T1 construct: frozen aliquots prepared by acCELLerate; host or cells: CHO-K1
Assay type: cell-based
Outline: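 Forskolin-stimulated CHO-K1 cells stably expressing human GPR84, agonist-suppressed cAMP measured by HTRF (665/620 ratio) after lysis. Compounds at 11 concentrations, 20 μM to 0.07 nM, duplicate; normalized to DMSO and no-agonist controls; IC50 by 4-parameter fit.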

T1 sequence (Q9NQS5 whole entry): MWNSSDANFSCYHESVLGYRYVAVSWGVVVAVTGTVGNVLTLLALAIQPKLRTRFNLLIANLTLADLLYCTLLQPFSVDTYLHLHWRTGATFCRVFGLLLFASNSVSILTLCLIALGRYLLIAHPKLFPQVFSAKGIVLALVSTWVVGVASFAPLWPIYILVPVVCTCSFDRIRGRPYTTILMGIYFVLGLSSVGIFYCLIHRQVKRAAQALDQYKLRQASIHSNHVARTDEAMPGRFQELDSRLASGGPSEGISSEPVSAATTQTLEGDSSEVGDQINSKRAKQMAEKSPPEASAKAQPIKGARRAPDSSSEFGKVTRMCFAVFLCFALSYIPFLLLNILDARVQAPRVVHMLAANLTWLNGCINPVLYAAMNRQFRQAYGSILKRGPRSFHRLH

Row | SMILES | IC50
1 | Cc1c(C(=O)NC[C@@H]2COCCO2)oc2c1-c1nn(Cc3ccccn3)cc1C(C)C2 (mixture of isomers) [Example 246, (4±)-N-{[(2R)-1,4-dioxan-2-yl]methyl}-4,8-dimethyl-2-[(pyridin-2-yl)methyl]-4,5-dihydro-2H-furo[2,3-g]indazole-7-carboxamide] | 75 nM
2 | O=C(NCc1cncs1)c1oc2c(c1C(F)(F)F)-c1nn(C[C@H]3COCCO3)cc1CC2 [Example 230, 2-[(2S)-1,4-Dioxan-2-ylmethyl]-N-(1,3-thiazol-5-ylmethyl)-8-(trifluormethyl)-4,5-dihydro-2H-furo[2,3-g]indazol-7-carboxamide] | 881 nM
3 | Cc1c(C(=O)NC[C@@H]2COCCO2)oc2c1-c1nn(CC3COC3)cc1CC2 [Example 92, N-[(2R)-1,4-dioxan-2-ylmethyl]-8-methyl-2-(oxetan-3-ylmethyl)-4,5-dihydro-2H-furo[2,3-g]indazole-7-carboxamide] | 130 nM
4 | Cc1c(C(=O)NC[C@@H]2COCCO2)oc2c1-c1nn(C[C@H]3CCCO3)cc1CC2 [Example 106, N[(2R)-1,4-dioxan-2-ylmethyl]-8-methyl-2-[(2R)-tetrahydrofuran-2-ylmethyl]-4,5-dihydro-2H-furo[2,3-g]indazole-7-carboxamide] | 77 nM
5 | Cc1c(C(=O)NCC2CCCCO2)oc2c1-c1nn(Cc3ccccn3)cc1CC2 (racemic) [Example 172] | 12000 nM
6 | CC1CCC(CNC(=O)c2oc3c(c2C(F)(F)F)-c2nn(CC4COCCO4)cc2CC3)O1 (single isomer, unassigned) [Example 224-2, 2-{[(2S)-1,4-dioxan-2-yl]methyl}-N-{[(2S or 2R,5S or 5R)-5-methyloxolan-2-yl]methyl}-8-(trifluoromethyl)-4,5-dihydro-2H-furo[2,3-g]indazole-7-carboxamide] | 154 nM
7 | Cc1c(C(=O)NCC2CCO2)oc2c1-c1nn(Cc3ccccn3)cc1CC2 (racemic) [Example 35, 8-methyl-N-[(2R/S)-oxetan-2-ylmethyl]-2-(pyridin-2-ylmethyl)-4,5-dihydro-2H-furo[2,3-g]indazole-7-carboxamide] | 470 nM
8 | Cc1c(C(=O)NCc2cc(C3CC3)on2)oc2c1-c1nn(Cc3ccccn3)cc1CC2 [Example 7, N-[(5-cyclopropyl-1,2-oxazol-3-yl)methyl]-8-methyl-2-(pyridin-2-ylmethyl)-4,5-dihydro-2H-furo[2,3-g]indazole-7-carboxamide] | 150 nM
9 | Cc1c(C(=O)NC[C@@H]2COCCO2)oc2c1-c1nn(Cc3cccnn3)cc1CC2 [Example 185] | 551 nM
10 | Cc1ccc(Cn2cc3c(n2)-c2c(oc(C(=O)NC[C@@H]4CCCO4)c2C(F)(F)F)CC3C)cn1 (mixture of isomers) [Example 253, (4±)-4-methyl-2-[(6-methylpyridin-3-yl)methyl]-N-{[(2S)-oxolan-2-yl]methyl}-8-(trifluoromethyl)-4,5-dihydro-2H-furo[2,3-g]indazole-7-carboxamide] | 5 nM
11 | C[C@@H]1Cc2oc(C(=O)NC[C@@H]3CCCO3)c(C(F)(F)F)c2-c2nn(C[C@H]3COCCO3)cc21 (single isomer, unassigned) [Example 255-2, (4R or 4S)-2-{[(2S)-1,4-dioxan-2-yl]methyl}-4-methyl-N-{[(2S)-oxolan-2-yl]methyl}-8-(trifluoromethyl)-4,5-dihydro-2H-furo[2,3-g]indazole-7-carboxamide] | 16 nM
12 | Cc1c(C(=O)NCC2(C)CCCO2)oc2c1-c1nn(Cc3ccccn3)cc1CC2 (racemic) [Example 173] | 7070 nM
13 | Cc1ccc(Cn2cc3c(n2)-c2c(oc(C(=O)NC[C@@H]4CCCO4)c2C(F)(F)F)CC32CCC2)nc1 [Example 277, 2′-[(5-Methylpyridin-2-yl)methyl]-N-[(2S)-tetrahydrofuran-2-ylmethyl]-8′-(trifluormethyl)-2′,5′-dihydrospiro[cyclobutan-1,4′-furo[2,3-g]indazol]-7′-carboxamide] | 8 nM
14 | Cc1ccc(Cn2cc3c(n2)-c2c(oc(C(=O)NC[C@@H]4CCCO4)c2C)CC32CCC2)nc1 [Example 203] | 22 nM
15 | Cc1c(C(=O)NC[C@@H]2CCCO2)oc2c1-c1nn(Cc3ccncc3)cc1C1(CCC1)C2 [Example 202] | 77 nM
16 | Cc1c(C(=O)NC[C@@H]2COCCO2)oc2c1-c1nn(CCNC(=O)OC(C)(C)C)cc1CC2 [Example 140, tert-butyl [2-(7-{[(2R)-1,4-dioxan-2-ylmethyl]carbamoyl}-8-methyl-4,5-dihydro-2H-furo[2,3-g]indazol-2-yl)ethyl]carbamate] | 83 nM
17 | Cc1c(C(=O)NC[C@@H]2CCCO2)oc2c1-c1nn(CC3COc4ncccc4O3)cc1CC2 (mixture of isomers) [Example 52, 2-[(2R/S)-2,3-dihydro[1,4]dioxino[2,3-b]pyridin-2-ylmethyl]-8-methyl-N-[(2S)-tetrahydrofuran-2-ylmethyl]-4,5-dihydro-2H-furo[2,3-g]indazole-7-carboxamide] | 42 nM
18 | Cc1cccc(CNC(=O)c2oc3c(c2C(F)(F)F)-c2nn(C[C@H]4COCCO4)cc2[C@H](C)C3)n1 (single isomer, unassigned) [Example 315, (4R or 4S)-2-{[(2S)-1,4-dioxan-2-yl]methyl}-4-methyl-N-[(6-methylpyridin-2-yl)methyl]-8-(trifluoromethyl)-4,5-dihydro-2H-furo[2,3-g]indazole-7-carboxamide] | 266 nM
19 | Cc1conc1CNC(=O)c1oc2c(c1C)-c1nn(Cc3ccccn3)cc1CC2 [Example 26, 8-methyl-N-[(4-methyl-1,2-oxazol-3-yl)methyl]-2-(pyridin-2-ylmethyl)-4,5-dihydro-2H-furo[2,3-g]indazole-7-carboxamide] | 1190 nM
20 | Cc1c(C(=O)NCC2CC(F)(F)CO2)oc2c1-c1nn(C[C@H]3COCCO3)cc1C1(CC1)C2 (mixture of isomers) [Example 197] | 98 nM
21 | Cc1c(C(=O)NCc2ccon2)oc2c1-c1nn(CC3COc4ncccc4O3)cc1CC2 (racemic) [Example 55, 2-[(2R/S)-2,3-dihydro[1,4]dioxino[2,3-b]pyridin-2-ylmethyl]-8-methyl-N-(1,2-oxazol-3-ylmethyl)-4,5-dihydro-2H-furo[2,3-g]indazole-7-carboxamide] | 49 nM
22 | O=C(NC[C@@H]1CCCO1)c1oc2c(c1C(F)(F)F)-c1nn(Cc3ccncc3)cc1C1(CCC1)C2 [Example 280, 2′-(Pyridin-4-ylmethyl)-N-[(2S)-tetrahydrofuran-2-ylmethyl]-8′-(trifluormethyl)-2′,5′-dihydrospiro[cyclobutan-1,4′-furo[2,3-g]indazol]-7′-carboxamide] | 16 nM
23 | Cc1c(C(=O)NC[C@@H]2COCCO2)oc2c1-c1nn(C[C@H]3CCOC3)cc1CC2 [Example 112, N-[(2R)-1,4-dioxan-2-ylmethyl]-8-methyl-2-[(3R)-tetrahydrofuran-3-ylmethyl]-4,5-dihydro-2H-furo[2,3-g]indazole-7-carboxamide] | 320 nM
24 | O=C(NCc1ncco1)c1oc2c(c1C1CC1)-c1nn(Cc3ccccn3)cc1CC2 [Example 122, 8-cyclopropyl-N-(1,3-oxazol-2-ylmethyl)-2-(pyridin-2-ylmethyl)-4,5-dihydro-2H-furo[2,3-g]indazole-7-carboxamide] | 61 nM
25 | Cc1cc(CNC(=O)c2oc3c(c2C)-c2nn(Cc4ccccn4)cc2CC3)no1 [Example 8, 8-methyl-N-[(5-methyl-1,2-oxazol-3-yl)methyl]-2-(pyridin-2-ylmethyl)-4,5-dihydro-2H-furo[2,3-g]indazole-7-carboxamide] | 210 nM
